Test results from patent publication US20090221554A1, “METHOD OF TREATING COGNITIVE IMPAIRMENT” (priority 2008, published 2009).

What was measured:
[1] = tested on: extracellular level of ACh in the hippocampus; assay: Extracellular level of acetylcholine (ACh) in the rat hippocampus (microdialysis, HPLC-ECD); type: in vivo, rats; conditions: vs 1% CMC
Method: Food and water were available ad libitum. All animal care and treatments were conducted in accordance with the Guidelines for the Care and Use of Laboratory Animals established at the Central Research Laboratory, Zenyaku Kogyo Co., Ltd.

[2] = tested on: cognitive impairment induced by scopolamine; assay: Passive avoidance task, scopolamine-induced cognitive impairment in mice; type: in vivo
Method: Male mice of the ICR strain (Charles River Laboratories Japan, Inc.) at the ages of 8 to 9 weeks were used in the experiment. They were housed in a cage in group of 3 or 4 mice, in a room maintained at around 22° C. with a 12-h light/dark cycle. Food and water were available ad libitum. All animal care and treatments were conducted in accordance with the Guidelines for the Care and Use of Laboratory Animals established at the Central Research Laboratory, Zenyaku Kogyo Co., Ltd.
Compound 1 and donepezil were suspended in 1% carboxymethyl cellulose (CMC). […] For the coadministration studies of Compound 1 and donepezil, both drug suspensions were mixed together and this mixed suspension was injected. All drugs were prepared immediately before use and orally administered in a volume of 10 ml/kg.
The passive avoidance apparatus (Neuroscience Inc.) consisted of an illuminated chamber and a larger dark chamber. Two chambers were separated by a guillotine door. Oral administration of compound 1 at doses of 0.0001 mg/kg or 0.001 mg/kg and/or donepezil at doses of 0.01 and 0.1 mg/kg was given 60 min before the acquisition trial. […] Matched control group received vehicle only. In the acquisition trial, each mouse was placed in the illuminated chamber. Immediately after the entry into the dark chamber, the door was closed and inescapable scrambled electric shock (100 V, 0.4 mA, 1.5 sec) was delivered through the floor grid. Twenty-four h later, each mouse was placed in the illuminated chamber for retention trial. The interval between the placement in the illuminated chamber and the entry into the dark chamber was measured as step through latency (maximum 300 sec).
P level of <0.05 was considered indicative of statistical significance for the tests.

Structure (SMILES): COc1cc2c(cc1OC)C(=O)C(CC1CCN(Cc3ccccc3)CC1)C2 (stereo not shown) [donepezil]
- extracellular level of ACh in the hippocampus ([1]; donepezil 1 mg/kg p.o.): did not significantly increase
- step-through latency ([2]; donepezil 0.01 mg/kg p.o., scopolamine 1 mg/kg i.p., vs 1% CMC + scopolamine): did not significantly prolong
- step-through latency ([2]; donepezil 0.1 mg/kg p.o., scopolamine 1 mg/kg i.p., vs 1% CMC + scopolamine, P<0.05): prolonged

Structure (SMILES): CN1[C@@H]2C[C@@H](OC(=O)[C@H](CO)c3ccccc3)C[C@H]1[C@@H]1O[C@@H]12 [scopolamine]
- step-through latency ([2]; 1% CMC + scopolamine 1 mg/kg i.p. vs 1% CMC + saline control, P<0.01): markedly shorter

Structure (SMILES): O=C1N=C2C=CC=CN2C12Cc1ccccc1C2 [compound 1, spiro[imidazo[1,2-a]pyridin-2(3H)-one-3,2′-indan]]
- extracellular level of ACh in the hippocampus ([1]; compound 1 0.001 mg/kg p.o.): did not significantly increase
- step-through latency ([2]; compound 1 0.0001 mg/kg p.o. 60 min before acquisition, scopolamine 1 mg/kg i.p., retention trial 24 h, vs 1% CMC + scopolamine): did not significantly prolong
- step-through latency ([2]; compound 1 0.001 mg/kg p.o., scopolamine 1 mg/kg i.p., vs 1% CMC + scopolamine, P<0.05): prolonged
